This is an account of results in US20220031695A1, “SHP2 INHIBITOR COMPOSITIONS FOR USE IN TREATING CANCER” (Revolution Medicines, Inc., priority 2018, published 2022).

Structures are written as SMILES.

One experiment addresses T1, SHP2 (Homo sapiens, UniProt Q06124).
T1 sequence (Q06124 1-593): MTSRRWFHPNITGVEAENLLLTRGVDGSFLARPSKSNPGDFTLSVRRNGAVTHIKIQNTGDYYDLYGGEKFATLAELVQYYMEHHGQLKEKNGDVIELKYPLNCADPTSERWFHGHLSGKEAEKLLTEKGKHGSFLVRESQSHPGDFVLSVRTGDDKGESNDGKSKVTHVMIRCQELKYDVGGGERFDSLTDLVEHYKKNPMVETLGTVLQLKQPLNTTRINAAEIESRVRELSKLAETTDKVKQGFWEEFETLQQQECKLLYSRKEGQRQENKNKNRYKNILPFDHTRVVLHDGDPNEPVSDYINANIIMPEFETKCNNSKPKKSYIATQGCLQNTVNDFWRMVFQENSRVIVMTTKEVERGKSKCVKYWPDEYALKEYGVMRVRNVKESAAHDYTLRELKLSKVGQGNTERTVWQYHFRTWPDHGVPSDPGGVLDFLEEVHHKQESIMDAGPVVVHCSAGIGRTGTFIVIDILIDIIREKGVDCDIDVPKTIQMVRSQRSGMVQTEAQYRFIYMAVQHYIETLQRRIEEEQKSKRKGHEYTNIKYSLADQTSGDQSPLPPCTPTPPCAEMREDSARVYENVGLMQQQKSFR
Kind of experiment: SHP2 allosteric inhibition assay (DiFMUP prompt fluorescence). The experiment is classed as biochemical. To be noted: 0.2 nM SHP2, 0.5 μM activating peptide, DiFMUP substrate. An excerpt:
Without wishing to be bound by theory, SHP is allosterically activated through binding of bis-tyrosyl-phosphorylated peptides to its Src Homology 2 (SH2) domains. The latter activation step leads to the release of the auto-inhibitory interface of SHP2, which in turn renders the SHP2 protein tyrosine phosphatase (PTP) active and available for substrate recognition and reaction catalysis. The catalytic activity of SHP2 was monitored using the surrogate substrate DiFMUP in a prompt fluorescence assay format.
The phosphatase reactions were performed at room temperature in 96-well black polystyrene plate, flat bottom, non-binding surface (Corning, Cat #3650) using a final reaction volume of 100 μL and the following assay buffer conditions: 50 mM HEPES, pH 7.2, 100 mM NaCl, 0.5 mM EDTA, 0.05% P-20, 1 mM DTT.
The inhibition of SHP2 by RMC-3943, RMC-4550, and Compound C was monitored using an assay in which 0.2 nM of SHP2 was incubated with 0.5 μM of Activating Peptide 1 (sequence: H2N-LN(pY)IDLDLV(dPEG8)LST(pY)ASINFQK-amide) (SEQ ID NO: 1) or Activating Peptide 2 (sequence: H2N-LN(pY)AQLWHA(dPEG8)LTI(pY)ATIRRF-amide) (SEQ ID NO: 2). After 30-60 minutes incubation at 25° C., the surrogate substrate DiFMUP (Invitrogen, Cat #D6567) was added to the reaction and activity was determined by a kinetic read using a microplate reader (Envision, Perkin-Elmer or Spectramax M5, Molecular Devices). […]

Experiment [1] has as its system ROS1 fusion-positive NSCLC. The settings on record: patients harboring ROS1 fusion-positive NSCLC; cited from earlier work.

`Nc1nc(N2CCC3(CCC[C@H]3N)CC2)cnc1Sc1ccnc(Cl)c1Cl` [RMC-3943]: at SHP2, half-maximal inhibition (IC50) was put at 2.19 nM. As for `C[C@@H](Oc1cc(-c2cnn(C3CCNCC3)c2)cnc1N)c1c(Cl)ccc(F)c1Cl` [crizotinib], the progression-free survival in experiment [1] is reported as 19 month.
